Target: T1, human kv2.1 (Homo sapiens, UniProt Q14721)
T1 construct: A HindIII-Notl fragment containing full length 2.1 was isolated from pBS/kv2.1 and subcloned to pcDNA3 for expression; expressed in transfected cells
T1 sequence (Q14721 1-858): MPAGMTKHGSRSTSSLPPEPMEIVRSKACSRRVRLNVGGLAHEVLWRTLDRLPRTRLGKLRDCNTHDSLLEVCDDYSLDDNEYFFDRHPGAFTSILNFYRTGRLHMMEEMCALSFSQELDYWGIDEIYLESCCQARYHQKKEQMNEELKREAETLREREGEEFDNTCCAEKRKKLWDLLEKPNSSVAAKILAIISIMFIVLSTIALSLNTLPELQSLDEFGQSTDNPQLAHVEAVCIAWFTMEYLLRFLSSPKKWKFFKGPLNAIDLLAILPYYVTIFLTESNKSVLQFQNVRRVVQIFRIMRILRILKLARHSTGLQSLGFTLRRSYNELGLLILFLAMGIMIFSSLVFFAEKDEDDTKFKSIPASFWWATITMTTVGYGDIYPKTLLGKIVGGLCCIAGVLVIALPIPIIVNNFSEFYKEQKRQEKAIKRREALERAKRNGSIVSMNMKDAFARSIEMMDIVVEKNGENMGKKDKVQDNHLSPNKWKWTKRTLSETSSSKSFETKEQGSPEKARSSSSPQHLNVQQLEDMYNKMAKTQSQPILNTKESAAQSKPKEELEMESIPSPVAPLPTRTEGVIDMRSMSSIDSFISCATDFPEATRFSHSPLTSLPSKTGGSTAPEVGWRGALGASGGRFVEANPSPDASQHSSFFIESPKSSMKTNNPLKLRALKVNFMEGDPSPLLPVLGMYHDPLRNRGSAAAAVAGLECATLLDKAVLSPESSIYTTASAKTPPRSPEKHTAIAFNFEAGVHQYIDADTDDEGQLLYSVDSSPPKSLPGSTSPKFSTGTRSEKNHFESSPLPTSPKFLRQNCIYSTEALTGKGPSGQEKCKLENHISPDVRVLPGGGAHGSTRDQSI
Test: Whole cell patch clamp block of Kv2.1 in stably expressing CHO cells
Type: cell-based
Conditions: CHO cells stably expressing Kv2.1, whole cell patch clamp
Text: Full length cDNA of human kv2.1 was amplified from human brain polyA RNA by PCR. Oligo primers used for PCR amplification were designed according to the GeneBank accession# X68302 . The sequences of the two primers are: (5′ PCR primer) 5′-[…] (SEQ ID NO: 1), (3′ PCR primer) 5′-[…] (SEQ ID NO: 2). The cDNA was subcloned into pBS and sequenced. A HindIII-Notl fragment containing full length 2.1 was isolated from pBS/kv2.1 and subcloned to pcDNA3 for expression. The clone was transferred to pcDNA3 under the CMV promotor. […] Specifically, 1.5 μg of plasmid DNA (1.2 μg of Kv2.1 Plasmid and 0.3 μg of GFP plasmid Green Lantern™ (GIBCO)) was pre-incubated with 100 μl of DMEM/F12 and 12 μl of lipofectamine for a minimum of 15 minutes. Following incubation 1.4 ml of DMEM/F12 was added and the mixture overlayed on CHO cells (70-90% confluent) in a 6 well tray (1.5 ml/well). After 6-8 hours incubation an additional 1.5 ml of DMEM/F12 media containing 10% FBS was added to the transfection reaction. After a further overnight incubation the cells were removed from the 6 well plate with […] and plated at single cell density (10% Confluency) in 6 well plates contianing 25 mm glass coverslips. After overnight incubation, GFP containing cells were patched for current.
Stable CHO lines were prepared by using the same transfection protocol as above excluding the GFP DNA. […]

Row | Molecule | IC50
1 | CN1C[C@@H]2CN(CCCCc3ccc4c(c3)OCCO4)C[C@H](C1)[C@@H]2OC(=O)c1ccc(Cl)cc1 [Example 4] | ~300 nM
2 | hanatoxin (ECRYLFGGCKTTSDCCKHLGCKFRDKYCAWDFTFS) [reference compound] | ~60 nM

Reference: patent US6589934B1, “Kv2.1 antagonists” (SmithKline Beecham Corporation, priority 1997, dated 2003)
